Key:
[1] = molecular target: Protein cereblon/Cyclin-dependent kinase 5 (Homo sapiens, UniProt Q00535+Q96SW2); assay: PROTAC activity at CRBN/CDK5 in HEK293 cells assessed as induction of CDK5 degradation incubated for 24 hrs by Western blotting analysis; type: cell-based
[2] = molecular target: Protein cereblon/Cyclin-dependent kinase 9 (Homo sapiens, UniProt P50750+Q96SW2); assay: PROTAC activity at CRBN/CDK9 in HEK293 cells assessed as induction of CDK9 degradation incubated for 24 hrs by Western blotting analysis; type: cell-based
[3] = molecular target: Cyclin-dependent kinase 5 (Homo sapiens, UniProt Q00535); assay: Binding affinity to CDK5 (unknown origin) assessed as dissociation constant
[4] = molecular target: Cyclin-dependent kinase 9 (Homo sapiens, UniProt P50750); assay: Binding affinity to CDK9 (unknown origin) assessed as dissociation constant
[5] = molecular target: Protein cereblon/Cyclin-dependent kinase 2 (Homo sapiens, UniProt P24941+Q96SW2); assay: PROTAC activity at CRBN/CDK2 in HEK293 cells assessed as induction of CDK2 degradation incubated for 24 hrs by Western blotting analysis; type: cell-based

Chain of Protein cereblon/Cyclin-dependent kinase 9 (P50750 whole entry): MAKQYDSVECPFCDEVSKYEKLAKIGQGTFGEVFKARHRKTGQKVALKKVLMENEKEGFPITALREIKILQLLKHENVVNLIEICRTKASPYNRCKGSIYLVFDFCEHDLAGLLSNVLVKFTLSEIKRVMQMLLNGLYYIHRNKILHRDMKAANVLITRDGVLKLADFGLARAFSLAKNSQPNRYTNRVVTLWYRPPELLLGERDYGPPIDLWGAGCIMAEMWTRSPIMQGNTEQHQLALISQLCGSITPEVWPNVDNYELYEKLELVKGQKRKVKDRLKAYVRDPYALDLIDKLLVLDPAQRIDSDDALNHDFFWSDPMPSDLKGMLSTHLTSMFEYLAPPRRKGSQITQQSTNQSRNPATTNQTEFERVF
Chain of Protein cereblon/Cyclin-dependent kinase 9 (Q96SW2 whole entry): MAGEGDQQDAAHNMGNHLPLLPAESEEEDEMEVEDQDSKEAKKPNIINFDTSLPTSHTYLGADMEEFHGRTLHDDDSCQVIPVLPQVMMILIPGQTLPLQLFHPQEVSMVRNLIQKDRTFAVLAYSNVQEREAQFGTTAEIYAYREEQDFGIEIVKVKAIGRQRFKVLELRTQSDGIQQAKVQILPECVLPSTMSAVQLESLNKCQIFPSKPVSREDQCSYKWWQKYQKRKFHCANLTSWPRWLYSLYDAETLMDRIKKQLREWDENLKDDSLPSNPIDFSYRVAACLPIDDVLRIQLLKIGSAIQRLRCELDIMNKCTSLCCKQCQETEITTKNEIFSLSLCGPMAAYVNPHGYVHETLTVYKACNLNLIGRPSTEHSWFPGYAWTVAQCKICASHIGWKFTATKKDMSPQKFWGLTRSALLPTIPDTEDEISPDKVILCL
Chain of Protein cereblon/Cyclin-dependent kinase 5 (Q00535 whole entry): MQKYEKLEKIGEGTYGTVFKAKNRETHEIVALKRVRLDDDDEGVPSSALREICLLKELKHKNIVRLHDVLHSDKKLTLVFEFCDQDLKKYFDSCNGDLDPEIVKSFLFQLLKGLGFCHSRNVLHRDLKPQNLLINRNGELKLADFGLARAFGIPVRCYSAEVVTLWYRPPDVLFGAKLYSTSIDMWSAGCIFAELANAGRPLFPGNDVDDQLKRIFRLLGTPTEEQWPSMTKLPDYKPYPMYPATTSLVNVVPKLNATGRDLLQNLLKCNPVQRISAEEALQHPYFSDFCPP
Chain of Protein cereblon/Cyclin-dependent kinase 5 (Q96SW2 whole entry): as the sequence (Q96SW2 whole entry) above
Chain of Cyclin-dependent kinase 9 (P50750 whole entry): as the sequence (P50750 whole entry) above
Chain of Cyclin-dependent kinase 5 (Q00535 whole entry): as the sequence (Q00535 whole entry) above

Row | IC50 [1] | IC50 [2] | Kd [3] | Kd [4] | IC50 [5] | SMILES
1 | 32 nM | 1080 nM | 230 nM | 1060 nM |  | O=C1CCC(N2C(=O)c3cccc(OCCCCCOc4ccc(CC(=O)Nc5cc(C6CCC6)n[nH]5)cc4)c3C2=O)C(=O)N1 (configuration not stated)
2 | 7 nM | 530 nM |  |  | 155 nM | O=C(CCCOc1ccc(CC(=O)Nc2cc(C3CCC3)[nH]n2)cc1)NCCCCNc1cccc2c1C(=O)N(C1CCC(=O)NC1=O)C2=O (configuration not stated)

Source: ChEMBL document CHEMBL5360660, “Cyclin-Dependent Kinase Degradation via E3 Ligase Binding for Potential Disease Modulation in Cancer Treatment” (ACS Med Chem Lett, 2023)
